{
  "source": "patent US5112810A",
  "about": "“Method for treating multiple sclerosis” (Mitsui Pharmaceuticals, Inc., priority 1981, dated 1992)",
  "test_system": "male Hartley guinea pig",
  "assay": "Toxicity (Experiment 3)",
  "assay_type": "in vivo",
  "details": "FTS 100 mg/kg",
  "experimental": "Toxicity was studied by treating a male Hartley guinea pig with FTS at a dose of 100 mg/kg and observing the animal for one-week. This animal was still alive at the end of one-week observation period.",
  "note": "Where a SMILES comes first, the peptide text is derived from it. [ ]: non-standard residue; d: D form. pGlu = O=C1CC[C@@H](C(=O)O)N1",
  "data": [
    {"compound": "C[C@H](NC(=O)[C@@H]1CCC(=O)N1)C(=O)N[C@@H](CCCCN)C(=O)N[C@@H](CO)C(=O)N[C@@H](CCC(N)=O)C(=O)NCC(=O)NCC(=O)N[C@@H](CO)C(=O)N[C@@H](CC(N)=O)C(=O)O", "note": "[FTS, p-Glu-Ala-Lys-Ser-Gln-Gly-Gly-Ser-Asn-Oh] ([pGlu]AKSQGGSN-OH)", "values": [
      {"measurement": "Toxicity: survival at the end of one-week observation", "result": "still alive"}
    ]}
  ]
}
